Reference: patent US12215133B2 (BrightGene Bio-Medical Technology Co., Ltd., priority 2021, dated 2025)

Test system: db/db mice
Assay: Inhibitory effect of BG128 on hyperglycemia in db/db mice (Experimental Example 3)
Type: in vivo
Description: 55 6-8 week-old SPF-grade male db/db mice were purchased from Zhejiang Vital River Experimental Animal Technology Co., Ltd.
According to the dosage regimen in Table 7, a certain amount of Tirzepatide and BG128 were weighed and the vehicle (pH=7.0, 20 mM sodium citrate buffer) was added to formulated to the corresponding concentration. The formulation was performed once every 7 days, and the formulated mixture was sub-packaged and stored at 2° C.-8° C. in the dark.
Before the administration, according to the body weight and fasting blood glucose, the animals were grouped into: db/db-ND group, Tirzepatide—0.15 mg/kg group, BG128—0.05 mg/kg group, BG128—0.15 mg/kg group and BG128—0.5 mg/kg group, and each group have 11 animals; and see Table 7 for details.
The day of the first administration was recorded as d1, and the time was recorded by analogy; Tirzepatide and BG128 were administered once every three days, and the time points were d1, d4, d7, d10, d13, d16, d19, d22, d25 and d28, a total of 10 administrations; and see Table 7 for details.
Weighing: animals were weighed before administration once every three days until the end of the experiment.
The food intake of the animals was recorded starting at three days before the grouping for administration until the end of the experiment. The remaining amount was weighed before administration each time.
1) Non-fasting blood glucose determination: first administration 0 h (pre), 1 h, 2 h, 3 h, 6 h, 24 h, 48 h, 72 h;
2) Fasting blood glucose: the determination dates were respectively d-1 (before grouping), d7, d13, d19, d25 and d31. The animals were fasted for 6 hours, and the fasting blood glucose was determined before administration.
3 days after the last administration, the animals were weighed and fasted for 6 hours, and the fasting blood glucose of the animals was determined; after anesthesia, a portion of non-anticoagulated whole blood was collected through the orbital venous plexus, stood at room temperature for 30 minutes, and centrifuged at 5000 rpm for 5 minutes, the serum was separated and frozen at −80° C. for the determination of serum insulin content; a portion of anticoagulated whole blood was collected for the determination of HbA1c content. The serum insulin was determined by Elisa method.
The data was organized in Excel 2017 and Prism6.0, and the data was expressed as Mean±SEM (standard error). One-way ANOVA was used for analysis, and Tukey was selected as the analysis method for comparing significance of difference between groups; when the two groups were compared, T-test was used for two-tailed test between the two groups. […]

[1] = 0.5 mg/kg s.c. once every three days, anticoagulated whole blood, end of experiment, Mean ± SEM

CNC(CCCCNC(=O)COCCOCCOCCNC(=O)COCCOCCOCCNC(=O)CCC(NC(=O)CC(=O)O)C(=O)O)C(N)=O (stereo not shown) [BG128]
HbA1C (0.15 mg/kg s.c. once every three days, anticoagulated whole blood, end of experiment, Mean ± SEM): 5.31 ± 0.19 | HbA1C [1]: 4.68 ± 0.20 | HbA1C% [1]: 3.33 ± 0.16^abde % | blood sugar suppression effect (non-fasting) compared with Tirzepatide (within 72 h of the first administration, equal dose 0.15 mg/kg, FIG. 11): dose-dependent and better than that of positive drug Tirzepatide
